Consider ten molecules from patent publication US6608058B2, “6-methylnicotinamide derivatives as antiviral agents” (Dong Wha Pharm. Ind. Co., Ltd., priority 2000, dated 2003).

For this assay, the system named is HBV polymerase. Put plainly: Inhibitory effect on the in vitro activities of HBV polymerase in reverse transcription (ELISA-type). The assay is classed as biochemical. From the text:
The present inventors submitted application for a patent concerning HBV polymerase genetically expressed in and separated from E. coli, the process of its preparation, and the method to measure the enzyme activities (KR 94-3918, KR 96-33998). In the present experiments HBV polymerase was used which had been expressed in E. coli as stated above.
The method used in the present invention to measure in vitro reverse transcribing activities of HBV polymerase is as follows. Basic principles are the same as those for ELISA, nucleotides with biotin- or digoxigenin- group are included as substrates and anti-DIG antibodies attached to peroxidase enzyme recognize the polymerized substrates.
To the wells coated with streptavidin, 20 μl of HBV polymerase, 20 μl of reaction mixture (10 μM each of DIG-UTP and Biotin-UTP, 46 mM Tris-HCl, 266 mM KCl, 27.5 mM MgCl2, 9.2 mM DTT substrate/primer hybrid), and 20 μl of test compound (added to […]) were added and allowed to react at 22° C. for 15 hrs. During this reaction, HBV polymerase catalyzes DNA synthesis, and digoxigenin and biotin attached to nucleotides form bonds to streptavidin coated on the bottom of wells. When the reaction was done, each well was washed with 250 μl of cleaning buffer (pH 7.0) for 30 seconds, which was repeated five times to remove remaining impurities. 200 μl of anti-DIG-POD antibody was added to each well and allowed to react for 1 hr at 37° C., and the wells were washed with cleaning buffer to remove impurities. 200 μl each of ABTS™, a substrate of peroxidase, was then added and allowed to react at room temperature for 30 min. Absorbancy was measured at 405 nm using ELISA reader.
The inhibitory effects in HBV polymerase activities for reverse transcription were calculated using the group without test compound as a control and the results are shown in Table 1 as follows.

SMILES strings stand for the structures.

`Cc1ccc(C(=O)NC(C)(C)C)c(Nc2ccc3cn[nH]c3c2)n1` [Example 9, N-(t-butyl)-2-(1H-6-indazolylamino)-6-methylnicotinamide]: the “Inhibitory activity on HBV-RT (%)” value runs as follows: (0.01 μg/ml) 20%; (0.1 μg/ml) 48%; (1 μg/ml) 65%.

For `Cc1ccc(C(=O)N2CCOCC2)c(Nc2ccc3cn[nH]c3c2)n1` [Example 23, 2-(1H-6-indazolylamino)-6-methyl-3-(4-morpholinylcarbonyl)pyridine], the “Inhibitory activity on HBV-RT (%)” value by setting is: (0.01 μg/ml) 12%; (0.1 μg/ml) 40%; (1 μg/ml) 62%.

For `CNC(=O)c1ccc(C)nc1Nc1ccc2cn[nH]c2c1` [Example 7, 2-(1H-6-indazolylamino)-6-methyl-N-methylnicotinamide], the “Inhibitory activity on HBV-RT (%)” value (0.01 μg/ml) is given as 21%, the “Inhibitory activity on HBV-RT (%)” value (0.1 μg/ml) amounted to 50% and the “Inhibitory activity on HBV-RT (%)” value (1 μg/ml) came to 70%.

`Cc1ccc(C(=O)NCCN(C)C)c(Nc2ccc3cn[nH]c3c2)n1` [Example 12, N-[2-(dimethylamino)ethyl]-2-(1H-6-indazolylamino)-6-methylnicotinamide]: the “Inhibitory activity on HBV-RT (%)” value reads like this: (0.01 μg/ml) 49%; (0.1 μg/ml) 60%; (1 μg/ml) 86%.

For `Cc1ccc(C(=O)Nc2cccnc2)c(Nc2ccc3cn[nH]c3c2)n1` [Example 18, 2-(1H-6-indazolylamino)-6-methyl-N-(3-pyridyl)nicotinamide], the “Inhibitory activity on HBV-RT (%)” value is, setting by setting: (0.01 μg/ml) 18%; (0.1 μg/ml) 40%; (1 μg/ml) 69%.

In the case of `CCN(CC)CCNC(=O)c1ccc(C)nc1Nc1ccc2cn[nH]c2c1` [Example 13, N-[2-(diethylamino)ethyl]-2-(1H-6-indazolylamino)-6-methylnicotinamide], the “Inhibitory activity on HBV-RT (%)” value is, setting by setting: (0.01 μg/ml) 15%; (0.1 μg/ml) 45%; (1 μg/ml) 54%.

Consider `Cc1ccc(C(=O)NCCO)c(Nc2ccc3cn[nH]c3c2)n1` [Example 10, N-(2-hydroxyethyl)-2-(1H-6-indazolylamino)-6-methylnicotinamide], for which the “Inhibitory activity on HBV-RT (%)” value by setting is: (0.01 μg/ml) 48%; (0.1 μg/ml) 62%; (1 μg/ml) 89%.

Turning to `Cc1ccc(C(=O)NCc2cccnc2)c(Nc2ccc3cn[nH]c3c2)n1` [Example 19, 2-(1H-6-indazolylamino)-6-methyl-N-(3-pyridylmethyl)nicotinamide], the “Inhibitory activity on HBV-RT (%)” value runs as follows: (0.01 μg/ml) 32%; (0.1 μg/ml) 48%; (1 μg/ml) 76%.

For the molecule `Cc1ccc(C(=O)N(N)C(=O)c2cccnc2)c(Nc2ccc3cn[nH]c3c2)n1` [Example 22, 2-(1H-6-indazolylamino)-6-methyl-N-(3-pyridylcarbonyl)-3-pyridinecarbohydrazide], the “Inhibitory activity on HBV-RT (%)” value was 26% (0.01 μg/ml), 54% (0.1 μg/ml) and 85% (1 μg/ml).

Turning to `Cc1ccc(C(=O)NN2CCOCC2)c(Nc2ccc3cn[nH]c3c2)n1` [Example 16, 2-(1H-6-indazolylamino)-6-methyl-N-(4-morpholinyl)nicotinamide], the “Inhibitory activity on HBV-RT (%)” value runs as follows: (0.01 μg/ml) 35%; (0.1 μg/ml) 51%; (1 μg/ml) 78%.
